The target in one data set is T1, 5-HT4 receptors (Rattus norvegicus, UniProt Q62758).
T1 construct: The remaining inner tube of smooth muscle was known as the TMM; from tissue; host or cells: rat oesophagus tunica muscularis mucosae (TMM), male SD rats (Charles River)
T1 sequence (Q62758 whole entry): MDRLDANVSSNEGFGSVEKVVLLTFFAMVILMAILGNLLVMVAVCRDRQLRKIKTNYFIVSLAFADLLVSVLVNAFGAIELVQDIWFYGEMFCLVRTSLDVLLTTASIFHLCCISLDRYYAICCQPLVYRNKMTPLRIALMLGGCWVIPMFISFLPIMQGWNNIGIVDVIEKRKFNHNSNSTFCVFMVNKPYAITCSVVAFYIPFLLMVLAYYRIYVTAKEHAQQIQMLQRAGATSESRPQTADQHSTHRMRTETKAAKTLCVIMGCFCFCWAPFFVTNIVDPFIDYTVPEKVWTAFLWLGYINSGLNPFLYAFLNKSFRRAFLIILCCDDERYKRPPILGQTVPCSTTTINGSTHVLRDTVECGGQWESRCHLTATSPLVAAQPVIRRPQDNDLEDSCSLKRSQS
As to the kind of experiment: Functional assay: rat oesophagus TMM relaxation. As to conditions: carbachol-contracted rat oesophagus TMM, 1 μM antagonist. From the text: More specifically, partial agonist activity can be measured according to the following procedures.
Male SD rats (Charles River) weighing 250-350 g were stunned and then killed by cervical dislocation. The oesophagus was dissected from immediately proximal to the stomach (including piece of stomach to mark distal end) up to the level of the trachea and then placed in fresh Krebs' solution.
The outer skeletal muscle layer was removed in one go by peeling it away from the underlying smooth muscle layer using forceps (stomach to tracheal direction). The remaining inner tube of smooth muscle was known as the TMM. This was trimmed to 2 cm from the original ‘stomach-end’ and the rest discarded.
The TMMs were mounted as whole ‘open’ tubes in longitudinal orientation in 5 ml organ baths filled with warm (32° C.) aerated Krebs. Tissues were placed under an initial tension of 750 mg and allowed to equilibrate for 60 minutes. The tissues were re-tensioned twice at 15 minute intervals during the equilibration period. The pump flow rate was set to 2 ml/min during this time.
Following equilibration, the pump was switched off. The tissues were exposed to 1 μM carbachol and contracted and reached a steady contractile plateau within 15 minutes. Tissues were then subject to 1 μM 5-HT (this was to prime the tissues). The tissues relaxed in response to 5-HT fairly rapidly—within 1 minute. […]
Turning to `O=C(OCCN1CCCCC1)c1c[nH]c2ccccc12` [SB 203,186, 1H-Indole-3-carboxylic acid, 2-(1-piperidinyl)ethyl ester], the “reversal of 5-HT induced relaxation” value is “reversed 5-HT induced relaxation”.

System in the next data set: not given
Assay: not given
Details: not given
Turning to `CCCCN1CCC(CNC(=O)c2cc(Cl)c(N)n3cc(C)nc23)CC1`, the melting point was 188 to 191 °C. As to `CCCCN1CCC(CNC(=O)c2ccc(N)n3cc(CCC)nc23)CC1`, the melting point stood at 172 °C. `CCc1cn2c(N)c(Cl)cc(C(=O)NCC3CCN(CCC(C)(C)C)CC3)c2n1` gave a melting point of 234 °C. With `CCCCN1CCC(CNC(=O)c2ccc(N)n3cc(-c4ccccc4)nc23)CC1`, the melting point worked out at 221 °C. Same read-out and setting: in the case of `CCCc1cn2c(N)ccc(C(=O)NC3CCN(CCCOC)CC3)c2n1.Cl` it was 238 °C. The molecule `CCCCN1CCC(CNC(=O)c2ccc(N)n3cc(CC)nc23)CC1` registered a melting point of 139 to 145 °C. In the case of `COCCCN1CCC(CNC(=O)c2cc(Cl)c(N)n3cc(C)nc23)CC1`, the melting point was determined as 167 °C. The molecule `CCc1cn2c(N)c(Cl)cc(C(=O)NCC3CCN(CC(C)(C)OC)CC3)c2n1` registered a melting point of 211 °C. In turn, `CCCCN1CCC(CNC(=O)c2ccc(N)n3cc(C(C)C)nc23)CC1` gave a melting point of 138 °C.

Consider `COC(C)(C)CN1CCC(CNC(=O)c2cc(Cl)c(N)n3cc(C)nc23)CC1`, for which the melting point came out at 211 °C.

As for `CCCCN1CCC(CNC(=O)c2ccc(N)n3cc(Cl)nc23)CC1`, the melting point came to 113 °C. The molecule `CNc1c(Cl)cc(C(=O)NCC2CCN(CCCOC)CC2)c2nccn12` displayed a melting point of 125 °C. In the case of `CCc1cn2c(N)c(Cl)cc(C(=O)NCC3CCNCC3)c2n1`, the melting point is 153 °C. In turn, `Cc1cn2c(N)c(Cl)cc(C(=O)NCC3CCN(CC(C)C)CC3)c2n1` had a melting point of 216 to 219 °C. For `CCCCN1CCC(CNC(=O)c2cc(Cl)c(N)n3cc(C(C)C)nc23)CC1`, the melting point was determined as 168 °C. On the same count and under the same terms, in the case of `CCCCN1CCC(CNC(=O)c2cc(Cl)c(N)n3cc(-c4ccccc4)nc23)CC1.Cl` it was 263 °C; in that of `CCCc1cn2c(N)c(Cl)cc(C(=O)NC3CCN(CCCOC)CC3)c2n1.Cl`, 243 °C. Take `CCCCN1CCC(CNC(=O)c2cc(Cl)c(NC)n3ccnc23)CC1`: the melting point was found to be 148 °C. `CCc1cn2c(N)c(Cl)cc(C(=O)NC3CCN(CCCOC)CC3)c2n1` had a melting point of 179 °C.

The record behind these values is patent US6624162B2, “Imidazopyridine compounds as 5-HT4 receptor modulators” (Pfizer Inc., priority 2001, dated 2003).
